Converted amounts (≈) assume the structure as drawn. Read-outs that look alike come from different tables or passages of the source. Residues, ends and D or L forms follow the SMILES beside them.
Tests used:
Vibrio parahaemolyticus = test: Minimal inhibitory concentration (MIC); assay type: cell-based; details: Gram negative; bacteria 10^6 CFU/mL in 0.01 M PBS pH 7.6 mixed with equal volume of peptide in PBS, 30 °C 2 h, plated on LB agar 30 °C overnight; triplicate, repeated at least three times
Experimental: (§1) Seven bacteria including Vibrio parahaemolyticus, Vibrio fluvialis, Vibrio alginolyticus, Escherichia coli, Aeromonas hydrophila, Staphylococcus aureus and Streptococcus pyogenes were grown in LB medium at 30 °C and diluted to 10^6 CFU/mL in 0.01 M, pH 7.6 PBS. Peptides were diluted in PBS. The bacteria and diluted peptides were mixed in equal volumes, and then incubated at 30 °C for 2 h. […] Experiments were carried out in triplicate and repeated at least three times. Data are presented as mean ± standard deviation. GraphPad prism 6 was used to analyze the data with the statistical significance determined by one-way ANOVA and Student’s t test, and all experiments were carried out in triplicate.

Vibrio fluvialis = assay type: cell-based
Experimental: as §1

Staphylococcus aureus = assay type: cell-based
Experimental: as §1

Vibrio alginolyticus = assay type: cell-based
Experimental: as §1

Aeromonas hydrophila = assay type: cell-based
Experimental: as §1

Streptococcus pyogenes = assay type: cell-based
Experimental: as §1

Escherichia coli = assay type: cell-based
Experimental: as §1

[1] = tested on: seven bacteria (V. parahaemolyticus, V. fluvialis, V. alginolyticus, E. coli, A. hydrophila, S. aureus, S. pyogenes); test: MIC summarised over the seven bacteria (GB, average MIC, fold change); assay type: cell-based; details: for GB: summary of the MICs over the seven bacteria, footnote b not given; for decrease of antibacterial activity relative to L1: from MICs of Table 3, except for S.pyogenes
Experimental: as §1

[2] = not given; remark: listed apart in the source
[3] = not given; remark: listed apart in the source
[4] = not given; remark: listed apart in the source
[5] = Gram negative, bacteria 10^6 CFU/mL in 0.01 M PBS pH 7.6 mixed with equal volume of peptide in PBS, 30 °C 2 h, plated on LB agar 30 °C overnight, triplicate, repeated at least three times
[6] = Gram positive, bacteria 10^6 CFU/mL in 0.01 M PBS pH 7.6 mixed with equal volume of peptide in PBS, 30 °C 2 h, plated on LB agar 30 °C overnight, triplicate, repeated at least three times

Structure (SMILES)	MIC V. parahaemolyticus (Vibrio parahaemolyticus) [µg/mL]	MIC V. fluvialis (Vibrio fluvialis; [5]) [µg/mL]	MIC S. aureus (Staphylococcus aureus; [6]) [µg/mL]	MIC V. alginolyticus (Vibrio alginolyticus; [5]) [µg/mL]	MIC A. hydrophila (Aeromonas hydrophila; Gram negative (Table 2), bacteria 10^6 CFU/mL in 0.01 M PBS pH 7.6 mixed with equal volume of peptide in PBS, 30 °C 2 h, plated on LB agar 30 °C overnight, triplicate, repeated at least three times) [µg/mL]	MIC S. pyogenes (Streptococcus pyogenes; [6]) [µg/mL]	MIC E. coli (Escherichia coli; [5]) [µg/mL]	GB [1] [µg/mL]	α-helical content [%]	random coil content [2] [%]	β-turns content [3] [%]	MIC V. fluvialis (Vibrio fluvialis; 2 h, pH 7.6) [µg/mL]	MIC S. aureus (Staphylococcus aureus; 2 h, pH 7.6) [µg/mL]	MIC V. alginolyticus (Vibrio alginolyticus; 2 h, pH 7.6) [µg/mL]	MIC A. hydrophila (Aeromonas hydrophila; 2 h, pH 7.6) [µg/mL]	MIC S. pyogenes (Streptococcus pyogenes; 2 h, pH 7.6) [µg/mL]	MIC E. coli (Escherichia coli; 2 h, pH 7.6) [µg/mL]	β-strand content [4] [%]	average MIC relative to the average MIC of L1 ([1]; over the seven bacteria)	decrease of antibacterial activity relative to L1 [1]
NC[C@H]1O[C@H](O[C@H]2[C@H](O)[C@@H](O[C@H]3O[C@H](CO)[C@@H](O)[C@H](N)[C@H]3O)[C@H](N)C[C@@H]2N)[C@H](O)[C@@H](O)[C@@H]1O [Kanamycin, reference compound]	1 (≈ 2.06 µM)	1 (≈ 2.06 µM)	2 (≈ 4.13 µM)	0.5 (≈ 1.03 µM)	1 (≈ 2.06 µM)	1 (≈ 2.06 µM)	2 (≈ 4.13 µM)	1.1	–	–	–	–	–	–	–	–	–	–	–	–
CC[C@H](C)[C@H](NC(=O)[C@H](CCCCN)NC(=O)[C@H](Cc1c[nH]cn1)NC(=O)[C@H](CC(C)C)NC(=O)[C@H](CC(C)C)NC(=O)[C@H](Cc1ccccc1)NC(=O)[C@H](CC(N)=O)NC(=O)[C@@H](N)C(C)C)C(=O)N[C@@H](Cc1ccc(O)cc1)C(=O)NCC(=O)N[C@@H](CC(N)=O)C(=O)N[C@H](C(=O)N[C@@H](CCCNC(=N)N)C(=O)N[C@@H](Cc1ccc(O)cc1)C(=O)N[C@@H](CO)C(N)=O)[C@@H](C)CC [L1] (H-VNFLLHKIYGNIRYS-NH2)	31.2 (≈ 17 µM)	–	–	–	–	–	–	–	34.6	33.4	24	62.5 (≈ 34 µM)	62.5 (≈ 34 µM)	3.9 (≈ 2.12 µM)	3.9 (≈ 2.12 µM)	62.5 (≈ 34 µM)	3.9 (≈ 2.12 µM)	11.2	–	–
CC(C)C[C@H](NC(=O)[C@H](CCCCN)NC(=O)[C@H](CCC(N)=O)NC(=O)[C@@H](NC(=O)[C@H](C)NC(=O)[C@H](CCC(=O)O)NC(=O)CNC(=O)CN)C(C)C)C(=O)N[C@H](C(=O)N[C@@H](CCCNC(=N)N)C(=O)N[C@@H](CCC(=O)O)C(=O)N[C@H](C(=O)N[C@@H](CCCCN)C(=O)N[C@@H](CC(=O)O)C(=O)NCC(N)=O)C(C)C)C(C)C [L2] (H-GGEAVQKLVREVKDG-NH2; N-terminus and C-terminus assumed)	250 (≈ 158 µM)	–	–	–	–	–	–	205.1	–	–	–	125 (≈ 78.9 µM)	> 250	125 (≈ 78.9 µM)	250 (≈ 158 µM)	250 (≈ 158 µM)	> 250	–	tenfold	–
CC[C@H](C)[C@H](NC(=O)[C@H](CCCCN)NC(=O)[C@H](Cc1c[nH]cn1)NC(=O)[C@H](CC(C)C)NC(=O)[C@H](CC(C)C)NC(=O)CNC(=O)[C@H](CC(N)=O)NC(=O)[C@@H](N)C(C)C)C(=O)N[C@@H](Cc1ccc(O)cc1)C(=O)NCC(=O)N[C@@H](CC(N)=O)C(=O)N[C@H](C(=O)N[C@@H](CCCNC(=N)N)C(=O)N[C@@H](Cc1ccc(O)cc1)C(=O)N[C@@H](CO)C(N)=O)[C@@H](C)CC [M1] (H-VNGLLHKIYGNIRYS-NH2)	62.5 (≈ 35.8 µM)	–	–	–	–	–	–	–	–	–	–	250 (≈ 143 µM)	> 250	250 (≈ 143 µM)	15.6 (≈ 8.93 µM)	15.6 (≈ 8.93 µM)	15.6 (≈ 8.93 µM)	–	–	2- to 64 fold
CC[C@H](C)[C@H](NC(=O)[C@H](CCCNC(=N)N)NC(=O)[C@H](CO)NC(=O)[C@H](CCC(=O)O)NC(=O)[C@@H](NC(=O)[C@@H](NC(=O)[C@H](CC(C)C)NC(=O)[C@H](CC(C)C)NC(=O)[C@H](CC(=O)O)NC(=O)[C@H](CCCNC(=N)N)NC(=O)[C@@H](NC(=O)[C@H](CCCNC(=N)N)NC(=O)[C@H](C)NC(=O)[C@@H](NC(=O)CN)C(C)C)[C@@H](C)CC)[C@@H](C)CC)[C@@H](C)CC)C(N)=O [L8] (H-GVARIRDLLIIESRI-NH2; N-terminus and C-terminus assumed)	250 (≈ 145 µM)	–	–	–	–	–	–	185.8	–	–	–	250 (≈ 145 µM)	250 (≈ 145 µM)	250 (≈ 145 µM)	31.3 (≈ 18.2 µM)	250 (≈ 145 µM)	> 250	–	–	–
CC[C@H](C)[C@H](NC(=O)[C@H](C)NC(=O)[C@H](CC(=O)O)NC(=O)[C@H](CCCNC(=N)N)NC(=O)[C@@H](NC(=O)[C@@H](N)CCCNC(=N)N)[C@@H](C)CC)C(=O)N[C@@H](C)C(=O)N[C@@H](Cc1c[nH]cn1)C(=O)NCC(=O)N[C@@H](Cc1ccc(O)cc1)C(=O)N[C@H](C(=O)N[C@H](C(=O)N[C@@H](CC(=O)O)C(=O)N[C@@H](CCCCN)C(=O)N[C@H](C(N)=O)C(C)C)C(C)C)[C@@H](C)CC [L10] (H-RIRDAIAHGYIVDKV-NH2)	250 (≈ 145 µM)	–	–	–	–	–	–	113.3	–	–	–	125 (≈ 72.5 µM)	> 250	31.3 (≈ 18.1 µM)	31.3 (≈ 18.1 µM)	125 (≈ 72.5 µM)	> 250	–	–	–
CC[C@H](C)[C@H](NC(=O)[C@H](CC(N)=O)NC(=O)[C@H](CC(=O)O)NC(=O)[C@H](Cc1ccc(O)cc1)NC(=O)[C@@H](NC(=O)[C@H](CCCCN)NC(=O)[C@H](Cc1c[nH]cn1)NC(=O)[C@H](CC(C)C)NC(=O)[C@H](CC(C)C)NC(=O)[C@H](Cc1ccccc1)NC(=O)[C@H](CC(N)=O)NC(=O)[C@@H](N)C(C)C)[C@@H](C)CC)C(=O)N[C@@H](CCCNC(=N)N)C(=O)N[C@@H](Cc1ccc(O)cc1)C(=O)N[C@@H](CO)C(N)=O [M2] (H-VNFLLHKIYDNIRYS-NH2)	62.5 (≈ 33 µM)	–	–	–	–	–	–	69.0	–	–	–	> 250	> 250	> 250	15.6 (≈ 8.24 µM)	62.5 (≈ 33 µM)	7.8 (≈ 4.12 µM)	–	–	2- to 64 fold
CC[C@H](C)[C@H](NC(=O)[C@H](Cc1c[nH]cn1)NC(=O)[C@H](C)NC(=O)[C@@H](NC(=O)[C@H](CC(N)=O)NC(=O)[C@H](Cc1c[nH]cn1)NC(=O)[C@H](CC(C)C)NC(=O)[C@H](C)NC(=O)CNC(=O)[C@H](Cc1ccc(O)cc1)NC(=O)[C@@H](N)Cc1ccc(O)cc1)[C@@H](C)O)C(=O)N[C@H](C(=O)N[C@@H](CC(C)C)C(=O)NCC(=O)N[C@@H](CCCNC(=N)N)C(N)=O)C(C)C [L12] (H-YYGALHNTAHIVLGR-NH2)	250 (≈ 148 µM)	–	–	–	–	–	–	125.0	–	–	–	250 (≈ 148 µM)	> 250	15.6 (≈ 9.26 µM)	125 (≈ 74.2 µM)	125 (≈ 74.2 µM)	125 (≈ 74.2 µM)	–	–	–
CC[C@H](C)[C@H](NC(=O)[C@H](CCCCN)NC(=O)[C@H](Cc1c[nH]cn1)NC(=O)[C@H](CC(C)C)NC(=O)[C@H](CC(C)C)NC(=O)[C@H](Cc1ccccc1)NC(=O)[C@H](CC(N)=O)NC(=O)[C@@H](N)C(C)C)C(=O)N[C@@H](Cc1ccc(O)cc1)C(=O)NCC(=O)N[C@@H](CC(N)=O)C(=O)N[C@H](C(=O)N[C@@H](CCCNC(=N)N)C(=O)N[C@@H](CC(=O)O)C(=O)N[C@@H](CO)C(N)=O)[C@@H](C)CC [M3] (H-VNFLLHKIYGNIRDS-NH2)	31.2 (≈ 17.4 µM)	–	–	–	–	–	–	14.2	–	–	–	62.5 (≈ 35 µM)	62.5 (≈ 35 µM)	3.9 (≈ 2.18 µM)	3.9 (≈ 2.18 µM)	62.5 (≈ 35 µM)	3.9 (≈ 2.18 µM)	–	–	no change
